Test results reported in article PMC10958501, “4-Oxypiperidine Ethers as Multiple Targeting Ligands at Histamine H3 Receptors and Cholinesterases” (ACS Chemical Neuroscience, 2024).
Where two headings read alike, the source gives them in different places.

How the values were obtained:
[1] = tested on: BuChE; design: method as in PMID 16599255; conditions: cited from earlier work
[2] = tested on: AChE; conditions: cited from earlier work
[3] = target: T1, hH3R (Homo sapiens, UniProt Q9Y5N1); conditions: cited from earlier work
T1 construct: expressed in transfected cells; membrane fractions

[4] = tested on: H3R; design: method as in PMID 29671795, PMID 23957330; conditions: cited from earlier work
[5] = target: T2, eeAChE (Electrophorus electricus, UniProt O42275); assay: biochemical; conditions: for inhibition at 10 µM: read-out: eeAChE % inh. (10μM) ± SD; for IC50: read-out: eeAChE IC50 (μM) ± sem
T2 construct: purchased Sigma–Aldrich (Steinheim, Germany)

[6] = target: T3, gpH3R (Cavia porcellus, UniProt Q9JI35); assay: Ex vivo gpH3R screening on isolated guinea pig ileum electrically stimulated to contraction
T3 construct: isolated guinea pig ileum electrically stimulated to contraction; from tissue; host or cells: distal ileum of male guinea pigs
Experimental: All newly synthesized compounds were evaluated ex vivo as H3R antagonists/inverse agonists on guinea pig ileum (gpH3R) stimulated electrically for contraction.[47]
The compounds were tested against H3R by an ex vivo assay using isolated guinea pig ileum electrically stimulated to contraction, according to Vollinga et al.[47] The pA2-values were calculated according to Arunlakshana and Schild.[59] The radioligand-displacement assay was performed in membrane fractions of HEK-293 cells stably expressing hH3R. Cell cultivation and membrane preparation were performed according to Kottke et al.[48] The Ki values were calculated from the IC50 values using the Cheng–Prusoff equation.[60] The statistical calculations were performed on −log(Ki). […] The inhibitory activities toward AChE and BuChE of novel ADS compounds were assessed in a spectrophotometric Ellman’s assay using electric eel AChE (eeAChE) and equine BuChE (eqBuChE).[57] Intracellular cAMP accumulation was measured with a homogeneous TR-FRET immunoassay using the LANCE Ultra cAMP kit (PerkinElmer) and HEK293 cells stably expressing the human histamine H3 receptor.[61] A more detailed description of the biological methods is presented in the Supporting Information.
3. Pharmacological assay results.
3.1. Ex vivo assay for histamine H 3R receptor antagonists on guinea pig ileum.
Male guinea pigs, weighing 300-400 g were euthanized by a blow to the neck. Following this, a 20-30 cm length of the distal ileum, apart from the terminal 5 cm was rapidly removed and […]
USA) (1·10 -6 mol/L). The intraluminal content was rinsed and the isolated intestine was cut into 1.5-2 cm segments. The preparations were mounted between two platinum electrodes […]
and indomethacin (3·10 -7 mol/L).
CO2 mixture and maintained at 37 °C under a constant load of 1.0 g (Hugo Sachs Hebel-Messvorsatz (Tl-2)/HF-modem; Hugo Sachs Elektronik, Hugstetten, Germany) connected to a pen recorder (Kipp & Zonen BD41, Delft, Holland). During an equilibration period of 60 min, the Krebs buffer was changed every 10 min. The preparations were then continuously stimulated at 15-20 V at a frequency of 0.1 Hz for a duration of 0.5 ms, with rectangular-wave electrical pulses (Grass Stimulator S-88; Grass Instruments Co., Quincy, Massachusetts, […]
USA). […] Five minutes before (R)-(−)-α- […]
methylhistamine (RAMH) (Toronto Research Chemicals Inc., North York, Canada), administration, pyrilamine (Sigma-Aldrich, St. Louis, MO, USA) (1·10-5 mol/L concentration in organ bath) was added. The first cumulative concentration-response curve was determined […]
second to fourth curve was measured against increasing antagonist concentration (incubation time 20 min). The pA2-values were calculated according to Arunlakshana and Schild 5.
Statistical analysis was carried out with the Student’s t-test. In all tests, a p<0.05 was […]
considered statistically significant. The pA2 values were compared with the affinity of thioperamide (Sigma-Aldrich, St. Louis, MO, USA). […]

[7] = target: eqBuChE (Equus caballus, UniProt P81908); assay: biochemical; conditions: for inhibition at 10 µM: read-out: eqBuChE % inh. (10 μM) ± SD; for IC50: read-out: eqBuChE IC50 [μM] ± sem
[8] = target: T1, hH3R; assay: hH3R radioligand displacement assay in membrane fractions of HEK-293 cells; type: binding; conditions: [3H]Nα-methylhistamine displacement, HEK-293 membranes; 95% CI in brackets
Experimental: The compounds were tested against H3R by an ex vivo assay using isolated guinea pig ileum electrically stimulated to contraction, according to Vollinga et al.[47] The pA2-values were calculated according to Arunlakshana and Schild.[59] The radioligand-displacement assay was performed in membrane fractions of HEK-293 cells stably expressing hH3R. Cell cultivation and membrane preparation were performed according to Kottke et al.[48] The Ki values were calculated from the IC50 values using the Cheng–Prusoff equation.[60] The statistical calculations were performed on −log(Ki). The mean values and 95% confidence intervals were transformed to nanomolar concentrations. The inhibitory activities toward AChE and BuChE of novel ADS compounds were assessed in a spectrophotometric Ellman’s assay using electric eel AChE (eeAChE) and equine BuChE (eqBuChE).[57] Intracellular cAMP accumulation was measured with a homogeneous TR-FRET immunoassay using the LANCE Ultra cAMP kit (PerkinElmer) and HEK293 cells stably expressing the human histamine H3 receptor.[61] A more detailed description of the biological methods is presented in the Supporting Information. […]
considered statistically significant. The pA2 values were compared with the affinity of thioperamide (Sigma-Aldrich, St. Louis, MO, USA).
3.2. hH 3R radioligand displacement binding assay.
The radioligand displacement binding assay was performed in membrane fractions of HEK-293 cells stably expressing hH3R. Cell cultivation and membrane preparation was performed according to Kottke et al 6. For the radioligand displacement assay, radioactively labeled […]
assay volume was set to 200 µL. The compounds were tested in several appropriate concentrations between 100 µM and 0.1 nM. Pipetting was partly done by Freedom Evo® (Tecan). Pitolisant was used to determine non-specific binding at a concentration of 10 µM.
The membrane fraction (20 µg/well), test compounds, and radiolabeled ligand were incubated for 90 minutes at 25 °C while shaking. The bound radioligand was separated from the free radioligand by filtration through GF/B filters pre-treated with 0.3 % (m/v) polyethyleneimine using a cell harvester. Radioactivity was determined by liquid scintillation counting using a MicroBeta® Trilux (Perkin Elmer). The data was obtained in duplicates in at least three independent experiments. Non-specific binding was subtracted from the raw data to calculate specific binding values. The evaluation was performed with GraphPad Prism 6.1 (San Diego, CA, USA) using non-linear regression (one-site competition with a logarithmic scale). The Ki values were calculated from the IC50 values using the Cheng-Prusoff equation 7. The statistical calculations were performed on –log(Ki). […]

[9] = design: method as in PMID 29671795; conditions: in vivo; cited from earlier work
[10] = isolated guinea pig ileum, against (R)-(−)-α-methylhistamine, mean of at least three experiments, read-out: gpH3R pA2 ± sem (converted)

T1 sequence (Q9Y5N1 whole entry): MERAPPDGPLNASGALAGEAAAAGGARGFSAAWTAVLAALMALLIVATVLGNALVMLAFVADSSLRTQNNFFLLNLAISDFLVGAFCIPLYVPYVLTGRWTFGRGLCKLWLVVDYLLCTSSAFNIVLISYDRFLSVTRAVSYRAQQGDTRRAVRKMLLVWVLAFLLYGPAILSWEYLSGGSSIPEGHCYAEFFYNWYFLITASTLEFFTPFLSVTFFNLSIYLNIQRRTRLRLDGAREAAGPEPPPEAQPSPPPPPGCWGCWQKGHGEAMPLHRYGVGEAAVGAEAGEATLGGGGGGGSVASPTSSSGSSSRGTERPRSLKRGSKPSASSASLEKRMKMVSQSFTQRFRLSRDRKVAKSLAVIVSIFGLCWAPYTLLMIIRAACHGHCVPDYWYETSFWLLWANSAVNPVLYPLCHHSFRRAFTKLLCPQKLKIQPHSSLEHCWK
T2 sequence (O42275 24-633): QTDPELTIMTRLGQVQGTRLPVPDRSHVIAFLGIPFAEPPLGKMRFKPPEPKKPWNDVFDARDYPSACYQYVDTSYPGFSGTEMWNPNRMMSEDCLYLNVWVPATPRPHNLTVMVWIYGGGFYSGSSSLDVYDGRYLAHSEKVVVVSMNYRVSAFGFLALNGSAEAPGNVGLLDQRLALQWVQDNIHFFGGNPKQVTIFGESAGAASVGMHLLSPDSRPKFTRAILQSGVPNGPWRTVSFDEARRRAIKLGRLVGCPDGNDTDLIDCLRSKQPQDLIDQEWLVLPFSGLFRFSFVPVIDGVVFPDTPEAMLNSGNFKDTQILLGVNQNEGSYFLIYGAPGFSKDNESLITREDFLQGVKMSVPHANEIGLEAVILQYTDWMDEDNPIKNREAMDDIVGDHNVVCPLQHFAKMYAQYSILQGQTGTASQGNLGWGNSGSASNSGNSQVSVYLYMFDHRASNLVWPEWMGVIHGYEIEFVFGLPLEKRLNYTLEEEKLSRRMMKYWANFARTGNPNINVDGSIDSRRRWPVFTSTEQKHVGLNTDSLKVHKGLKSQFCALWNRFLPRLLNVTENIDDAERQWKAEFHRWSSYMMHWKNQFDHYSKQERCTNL
T3 sequence (Q9JI35 whole entry): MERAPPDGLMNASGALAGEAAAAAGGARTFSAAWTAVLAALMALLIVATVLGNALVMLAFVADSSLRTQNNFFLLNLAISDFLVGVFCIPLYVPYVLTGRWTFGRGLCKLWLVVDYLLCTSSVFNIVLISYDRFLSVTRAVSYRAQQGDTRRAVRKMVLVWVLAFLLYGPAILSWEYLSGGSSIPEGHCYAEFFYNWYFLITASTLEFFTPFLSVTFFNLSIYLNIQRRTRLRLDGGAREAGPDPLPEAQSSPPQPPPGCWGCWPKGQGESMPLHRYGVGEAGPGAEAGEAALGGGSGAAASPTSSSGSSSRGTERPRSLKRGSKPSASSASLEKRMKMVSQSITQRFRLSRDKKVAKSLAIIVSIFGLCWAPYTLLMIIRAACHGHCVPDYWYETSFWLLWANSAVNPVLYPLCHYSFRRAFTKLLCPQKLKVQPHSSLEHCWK
eqBuChE, sequence (P81908 whole entry): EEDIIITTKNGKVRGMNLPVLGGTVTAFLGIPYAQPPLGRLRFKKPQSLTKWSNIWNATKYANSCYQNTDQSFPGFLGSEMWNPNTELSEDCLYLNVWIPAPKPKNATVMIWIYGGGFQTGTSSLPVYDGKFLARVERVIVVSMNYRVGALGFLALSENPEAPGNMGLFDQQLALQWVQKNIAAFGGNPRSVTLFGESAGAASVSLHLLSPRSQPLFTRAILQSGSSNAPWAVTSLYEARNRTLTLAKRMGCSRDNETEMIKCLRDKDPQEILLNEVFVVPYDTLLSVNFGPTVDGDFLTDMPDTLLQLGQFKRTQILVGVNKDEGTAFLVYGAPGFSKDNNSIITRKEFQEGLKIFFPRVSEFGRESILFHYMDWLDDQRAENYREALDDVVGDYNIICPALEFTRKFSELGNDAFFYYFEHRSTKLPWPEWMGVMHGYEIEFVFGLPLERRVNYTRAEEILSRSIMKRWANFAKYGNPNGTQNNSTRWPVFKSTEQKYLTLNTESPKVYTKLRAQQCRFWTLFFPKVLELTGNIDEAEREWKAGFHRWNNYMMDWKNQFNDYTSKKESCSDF

SMILES	inhibition at 10 µM [5] [%]	Kb [6] [nM]	inhibition at 10 µM [7] [%]	IC50 [7] [µM]	further results
c1ccc2c(NCc3ccc(CCCN4CCCCC4)cc3)c3c(nc2c1)CCCC3 [III]	–	–	–	–	IC50 [1]: 8.8 nM; IC50 [2]: 2.6 nM; Ki [3]: 0.3 nM
CCCN(C)CCCCCOC1CCN(Cc2ccccc2)CC1 [ADS009, 5-((1-benzylpiperidin-4-yl)oxy)-N-methyl-N-propylpentan-1-amine]	–	–	–	–	pA2 [4]: 7.79
CCCN(C)Cc1cccc(COC2CCN(Cc3ccccc3)CC2)c1 [ADS025, N-(3-(((1-Benzylpiperidin-4-yl)oxy)methyl)benzyl)-N-methylpropan-1-amine]	53.7 ± 1.9	129	63.9 ± 1.7	6.05 ± 0.16	IC50 [5]: 9.94 ± 0.64 µM
CCCN(C)Cc1ccc(COC2CCN(Cc3ccccc3)CC2)cc1 [ADS022, N-(4-(((1-Benzylpiperidin-4-yl)oxy)methyl)benzyl)-N-methylpropan-1-amine]	61.6 ± 2.8	38	49.4 ± 1.9	–	IC50 [5]: 6.89 ± 0.271 µM; Ki [8]: 77.1 nM
CCCN(C)c1ccc(OC2CCN(Cc3cc4ccccc4o3)CC2)cc1 [ADS023, 4-((1-(Benzofuran-2-ylmethyl)piperidin-4-yl)oxy)-N-methyl-N-propylaniline]	40.3 ± 2.8	–	43.2 ± 2.1	–	Kb [6, 10]: > 100000 nM
S=C(NC1CCCCC1)N1CCC(c2cnc[nH]2)CC1 [Thioperamide]	–	–	–	–	pA2 [4]: 8.67
CCCN(C)c1ccc(OC2CCN(Cc3ccccc3)CC2)cc1 [ADS021, 4-((1-Benzylpiperidin-4-yl)oxy)-N-methyl-N-propylaniline]	33.4 ± 1.1	> 100000	95.88 ± 0.2	0.559 ± 0.125	–
CCCN(C)Cc1ccc(-c2ccc(COC3CCN(Cc4ccccc4)CC3)cc2)cc1 [ADS029, N-((4′-(((1-Benzylpiperidin-4-yl)oxy)methyl)-[1,1′-biphenyl]-4-yl)methyl)-N-methylpropan-1-amine]	69 ± 0.5	61.7	90.8 ± 0.3	1.4 ± 0.055	IC50 [5]: 3.71 ± 0.134 µM
CCCN(C)Cc1ccccc1COC1CCN(Cc2cc3ccccc3o2)CC1 [ADS028, N-(2-(((1-(Benzofuran-2-ylmethyl)piperidin-4-yl)oxy)methyl)benzyl)-N-methylpropan-1-amine]	2.3 ± 0.3	126	79.6 ± 0.4	2.65 ± 0.055	–
CCCN(C)Cc1ccccc1COC1CCN(Cc2ccccc2)CC1 [ADS027, N-(2-(((1-Benzylpiperidin-4-yl)oxy)methyl)benzyl)-N-methylpropan-1-amine]	4.8 ± 0.3	151	64.6 ± 0.9	4.31 ± 0.202	–
CCCN(C)Cc1cccc(COC2CCN(Cc3cc4ccccc4o3)CC2)c1 [ADS026, N-(3-(((1-(Benzofuran-2-ylmethyl)piperidin-4-yl)oxy)methyl)benzyl)-N-methylpropan-1-amine]	5.5 ± 0.6	–	55.9 ± 2	–	Kb [6, 10]: 93.3 nM
CCCN(C)CCCCCOC1CCN(Cc2cc3ccccc3o2)CC1 [ADS003, 5-((1-(benzofuran-2-ylmethyl)piperidin-4-yl)oxy)-N-methyl-N-propylpentan-1-amine]	–	–	–	–	pA2 [4]: 8.47; blood–brain barrier crossing [9]: ability to cross the blood–brain barrier
CCCN(C)Cc1ccc2cc(COC3CCN(Cc4cc5ccccc5o4)CC3)ccc2c1 [ADS032, N-((6-(((1-(Benzofuran-2-ylmethyl)piperidin-4-yl)oxy)methyl)naphthalen-2-yl)methyl)-N-methylpropan-1-amine]	28.1 ± 3.9	87.1	90.3 ± 0.1	1.64 ± 0.074	Ki [8]: 44.1 nM
c1cc(-c2ccc(CN3CCCCC3)cc2)ccc1CCN1CCCCC1 [I]	–	–	–	–	IC50 [2]: 1100 nM
CCCN(C)Cc1ccc(-c2ccc(COC3CCN(Cc4cc5ccccc5o4)CC3)cc2)cc1 [ADS030, N-((4′-(((1-(Benzofuran-2-ylmethyl)piperidin-4-yl)oxy)methyl)-[1,1′-biphenyl]-4-yl)methyl)-N-methylpropan-1-amine]	31.2 ± 0.5	257	83.1 ± 0.4	1.75 ± 0.077	–
CCCN(C)Cc1ccc(COC2CCN(Cc3cc4ccccc4o3)CC2)cc1 [ADS024, N-(4-(((1-(Benzofuran-2-ylmethyl)piperidin-4-yl)oxy)methyl)benzyl)-N-methylpropan-1-amine]	36.2 ± 3.6	26.9	32.2 ± 2.6	–	Ki [8]: 144 nM
